The values below come from PubChem BioAssay AID1205 (EPA DSSTox, 2008).

Active and inactive are the calls of the source.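 The calls were made as follows: active = tumour findings in long-term animal cancer tests in more than one sex, species or organ; inactive = no tumour finding and more than one negative test.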

This series can be described thus: DSSTox (CPDBAS) Carcinogenic Potency Database Summary MultiCellCall Results. Particulars: animal carcinogenicity bioassays, multi-cell call summary. The procedure, abridged:
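Summary call drawn from chronic long-term cancer bioassays in rats, mice, hamsters, dogs and nonhuman primates, using the most positive result per sex-species. Score: multispecies=50, multisex=30, multisite=20, summed for combinations.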
Turning to `CCN(CC)c1cc2oc3cc(=[N+](CC)CC)c(C)cc-3c(-c3ccc(S(=O)(=O)O)cc3S(=O)(=O)[O-])c2cc1C`, the outcome was “inactive; multisex inactive”.

Regarding `C=C1C[C@@]23CC[C@H]4[C@@](C)(CCC[C@@]4(C)C(=O)O[C@@H]4O[C@H](CO)[C@@H](O)[C@H](O)[C@H]4O)[C@@H]2CC[C@]1(O[C@@H]1O[C@H](CO)[C@@H](O)[C@H](O)[C@H]1O[C@@H]1O[C@H](CO)[C@@H](O)[C@H](O)[C@H]1O)C3`, the outcome was “inactive; multisex inactive”.

As to `CC(=O)NNc1ccc(CO)cc1`, the outcome is “active; multisite active; multisex active”.

With `CN(C)N=O`, the outcome is “active; multisite active; multisex active; multispecies active”.

As for `NC(=O)OCC(COC(N)=O)c1ccccc1`, the outcome is “active; multisite active; multisex active; multispecies active”.

For the compound `CC(C)CCCCCCOC(=O)c1ccccc1C(=O)OCCCCCCC(C)C`, the outcome is “active; multisite active; multisex active; multispecies active”.

For `CCN(CC(F)(F)F)N=O`, the outcome is “active; multisite active”.

As for `Cn1cc(OCC(O)CNC(C)(C)C)c2ccccc2c1=O` (stereo unspecified), the outcome is “inactive; multisex inactive; multispecies inactive”.

Regarding `O.O.O.O.O=C([O-])CC(O)(CC(=O)[O-])C(=O)[O-].[Fe+3]`, the outcome is “inactive; multisex inactive”.

In the case of `COC1=CC(=O)C[C@@H](C)[C@]12Oc1c(Cl)c(OC)cc(OC)c1C2=O`, the outcome was “active; multisite active; multisex active”.

For `CCN(N=O)C(=O)NCC(C)=O`, the outcome was “active; multisite active; multisex active; multispecies active”.

Regarding `O=[N+]([O-])c1cc(N(CCO)CCO)ccc1NCCO`, the outcome is “inactive; multisex inactive; multispecies inactive”.

Regarding `Nc1nc(-c2ccc([N+](=O)[O-])o2)cs1`, the outcome is “active; multisite active; multispecies active”.

For `CCOP(=S)(OCC)Oc1cc(C)nc(C(C)C)n1`, the outcome was “inactive; multisex inactive; multispecies inactive”.

In the case of `CN1C(C(=O)Nc2ccccn2)=C(O)c2sc(Cl)cc2S1(=O)=O`, the outcome was “inactive; multisex inactive”.

As for `CC1=CC(=O)CC(C)(C)C1`, the outcome was “active; multisite active”.

As to `NNC(=O)c1ccccc1`, the outcome is “active; multisite active; multisex active”.

Turning to `CC(N)Cc1ccccc1` (stereo unspecified), the outcome is “inactive; multisex inactive; multispecies inactive”.

As for `CCCCN(N)C=O`, the outcome was “active; multisite active; multisex active”.

In the case of `CC(=O)C1C(=O)C=C(C)OC1=O` (stereo unspecified), the outcome was “inactive; multisex inactive”.

On to `O=C([O-])C(=O)O.O=C([O-])C(=O)O.[K+].[K+].[O]=[Ti]`, for which the outcome is “inactive; multisex inactive”.

As for `NC(=S)NNC(N)=S`, the outcome was “inactive; multisex inactive; multispecies inactive”.

Regarding `NC(=O)N(CCc1ccccc1)N=O`, the outcome is “active; multisite active; multisex active”.

With `O=C(O)CCCc1ccc(N(CCCl)CCCl)cc1`, the outcome is “active; multisite active; multisex active; multispecies active”.

Consider `C#C[C@]1(OC(C)=O)CC[C@H]2[C@@H]3CCC4=CC(=O)CC[C@@H]4[C@H]3CC[C@@]21C`, for which the outcome was “active; multisite active; multispecies active”.

For `CCN(Cc1cccc(S(=O)(=O)O)c1)c1ccc(C(=C2C=CC(=[N+](CC)Cc3cccc(S(=O)(=O)[O-])c3)C=C2)c2ccccc2)cc1`, the outcome was “active; multisite active; multisex active”.

Regarding `CNNC`, the outcome is “active; multisite active; multisex active; multispecies active”.

With `N#Cc1c(Cl)c(Cl)c(Cl)c(C#N)c1Cl`, the outcome was “active; multisex active”.

For `CCCCCCc1ccc(O)cc1O`, the outcome is “inactive; multisex inactive; multispecies inactive”.

As for `C=CCNNCC=C`, the outcome was “active; multisex active”.

On to `Nc1ccc(Cl)cc1N`, for which the outcome is “active; multisite active; multisex active; multispecies active”.

For the compound `CN(CCCC(O)c1cccnc1)N=O` (stereo unspecified), the outcome is “active; multisite active”.

`NC(=O)Cc1cccc2ccccc12`: the outcome is “inactive; multisex inactive”.

On to `NNC(N)=O`, for which the outcome was “active; multisite active; multisex active”.

In the case of `NC(=S)Nc1cccc2ccccc12`, the outcome is “inactive; multisex inactive”.

For `Oc1ccc(Cl)cc1Cl`, the outcome is “inactive; multisex inactive; multispecies inactive”.

As to `CC(C)(CCCOc1ccc(OCCCC(C)(C)C(=O)O)c(-c2ccccc2)c1)C(=O)O`, the outcome is “active; multisex active”.

As for `COC(=O)NN`, the outcome is “inactive; multisex inactive”.

As to `Nc1ccccc1C(=O)OC/C=C/c1ccccc1`, the outcome is “active; multisite active; multisex active; multispecies active”.

With `[N-]=[N+]=O`, the outcome was “inactive; multisex inactive”.

As for `O=C1CN=C(c2ccccc2)c2cc(Cl)ccc2N1CC1CC1`, the outcome was “inactive; multisex inactive; multispecies inactive”.

In the case of `CCN=[N+](C)[O-]`, the outcome was “active; multisite active”.

`O=P1(NCCCl)OCCCN1CCCl` (stereo unspecified): the outcome is “active; multisite active; multisex active; multispecies active”.

As for `CN(CCc1ccccc1)N=O`, the outcome was “active; multisite active”.

On to `CC(C)C/C=N/N(C)C=O`, for which the outcome was “active; multisite active; multisex active”.

As for `C=CC=C`, the outcome is “active; multisite active; multisex active; multispecies active”.

`Clc1ccc(Cl)cc1`: the outcome is “active; multisite active; multisex active; multispecies active”.

As to `Cc1ccccc1N=O`, the outcome was “active; multisite active”.

Regarding `C=CCc1ccc(OC)c(OC)c1`, the outcome is “active; multisite active; multisex active; multispecies active”.

`COC(=O)C1=C(C)NC(C)=C(C(=O)OCCc2ccc(N3CCN(C(c4ccccc4)c4ccccc4)CC3)cc2)C1c1cccc([N+](=O)[O-])c1` (stereo unspecified): the outcome was “inactive; multisex inactive; multispecies inactive”.

Turning to `CCn1c2ccccc2c2cc(N)ccc21`, the outcome was “active; multisite active; multisex active; multispecies active”.

`CN(C)C(=O)Cl`: the outcome was “active; multisite active; multisex active; multispecies active”.

Take `CCCCCCCCCCCN(C)N=O`: the outcome is “active; multisite active”.

As for `O=C(O)c1ccccc1-c1c2cc(I)c(=O)c(I)c-2oc2c(I)c(O)c(I)cc12`, the outcome is “inactive; multisex inactive; multispecies inactive”.

Consider `O=C1C=CC(=O)C=C1`, for which the outcome was “active; multisex active”.

As for `CCN(CC)C(=S)S[Te](SC(=S)N(CC)CC)(SC(=S)N(CC)CC)SC(=S)N(CC)CC`, the outcome is “inactive; multisex inactive; multispecies inactive”.

Consider `O=C(O)CCCC/C=C(\c1ccccc1)c1cccnc1`, for which the outcome was “inactive; multisex inactive; multispecies inactive”.

Regarding `CC(C)NCC(O)COc1ccc(CC(N)=O)cc1` (stereo unspecified), the outcome was “inactive; multisex inactive”.

For the compound `Cc1cc(Cl)ccc1OCC(=O)O`, the outcome was “inactive; multisex inactive; multispecies inactive”.

Consider `O=C(O)CCl`, for which the outcome was “inactive; multisex inactive; multispecies inactive”.

On to `Cc1ccc2c(-c3ccccc3)nc(=O)n(C(C)C)c2c1`, for which the outcome is “inactive; multisex inactive”.
